Source: US8362000B2, “Azetidinyl diamides as monoacylglycerol lipase inhibitors” (Janssen Pharmaceutica NV, priority 2009, dated 2013)
Numbering of substitutions follows the chain as printed. Read-outs that look alike come from different tables or passages of the source.

Assays:
mutant MGL = biological target: T1, mutant MGL (Homo sapiens, UniProt Q99685, L169S/L176S); experiment: MGL ThermoFluor assay - mutant; format: binding
T1 sequence (Q99685 1-303 L169S/L176S): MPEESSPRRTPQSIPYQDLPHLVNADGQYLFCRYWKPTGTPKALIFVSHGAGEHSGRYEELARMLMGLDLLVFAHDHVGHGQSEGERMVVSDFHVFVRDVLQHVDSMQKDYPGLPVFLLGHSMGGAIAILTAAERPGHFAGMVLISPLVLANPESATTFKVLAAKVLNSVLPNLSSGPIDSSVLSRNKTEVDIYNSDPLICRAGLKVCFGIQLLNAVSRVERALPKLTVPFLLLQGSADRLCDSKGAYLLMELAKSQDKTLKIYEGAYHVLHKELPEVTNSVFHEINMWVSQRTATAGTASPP

[1] = biological target: T2, purified wild type MGL (wt-MGLL 6H-11-313) (Homo sapiens, UniProt Q99685)
T2 sequence (Q99685 1-303): T1 sequence (Q99685 1-303 L169S/L176S) with S169L, S176L

[2] = ThermoFluor, compound concentration measured by qNMR, read-out: MGL mutant ThermoFluor qKd (using qNMR conc.)
[3] = ThermoFluor, compound concentration measured by qNMR, read-out: MGL mutant ThermoFluor qKd (μM) (using qNMR conc.)
[4] = ThermoFluor concentration-response, read-out: MGL mutant ThermoFluor Kd
[5] = ThermoFluor thermal stability binding assay, read-out: MGL mutant ThermoFluor Kd
[6] = compound concentration measured by qNMR, read-out: MGL mutant ThermoFluor qKd (using qNMR conc.)

| Compound | IC50 [1] | Kd (mutant MGL; [4]) | other results |
| --- | --- | --- | --- |
| Cc1c(C(=O)N2CC(N3CCN(C(=O)c4nccs4)CC3)C2)[nH]c2ccc(F)cc12 [Cpd 719] | 0.154 µM | – | Kd (mutant MGL; [2]): 0.119 µM |
| O=C(c1ccc2c(ccn2-c2ccc(F)cc2)c1)N1CC(N2CCN(C(=O)c3ccc(Cl)s3)CC2)C1 [Cpd 1423] | 0.278 µM | – | Kd (mutant MGL; [3]): 0.176 µM |
| Cc1c(C(=O)N2CC(N3CCN(C(=O)c4nccs4)CC3)C2)sc2nc3n(c(=O)c12)CCC3 [Cpd 824] | 3.12 µM | – | Kd (mutant MGL; [2]): 0.074 µM |
| O=C(c1cn2cc(C(F)(F)F)ccc2n1)N1CC(N2CCN(C(=O)c3nccs3)CC2)C1 [Cpd 1453] | > 16.7 µM | – | Kd (mutant MGL; [3]): 10 µM |
| O=C(c1ccc2c(c1)CCN2Cc1ccccc1)N1CC(N2CCN(C(=O)c3nccs3)CC2)C1 [Cpd 994, 1-Benzyl-5-({3-[4-(1,3-thiazol-2-ylcarbonyl)piperazin-1-yl]azetidin-1-yl}carbonyl)-2,3-dihydro-1H-indole] | 0.013 µM | 0.002 µM | – |
| Cc1ccc2sc(C(=O)N3CC(N4CCN(C(=O)c5cscn5)CC4)C3)c(C(F)(F)F)c2c1 [Cpd 737, 1-(1-{[5-Methyl-3-(trifluoromethyl)-1-benzothiophen-2-yl]carbonyl}azetidin-3-yl)-4-(1,3-thiazol-4-ylcarbonyl)piperazine] | 0.285 µM | 0.031 µM | – |
| O=C(c1ccc(-n2cnc3ccccc32)cc1)N1CCN(C2CN(C(=O)c3cscn3)C2)CC1 [Cpd 1305] | 6.68 µM | 0.833 µM | – |
| Cc1noc(C)c1-c1ccc2cc(C(=O)N3CC(N4CCN(C(=O)c5nccs5)CC4)C3)[nH]c2c1 [Cpd 1211] | 0.2 µM | – | Kd (mutant MGL; [3]): 0.106 µM |
| CC1(C)c2ccccc2-c2ccc(C(=O)N3CC(N4CCN(C(=O)c5nccs5)CC4)C3)cc21 [Cpd 952] | 0.012 µM | – | Kd (mutant MGL; [2]): 0.019 µM |
| O=C(c1cscn1)N1CCN(C2CN(C(=O)c3cc(-c4ccccc4)ccc3F)C2)CC1 [Cpd 1280] | 1.98 µM | 6.42 µM | – |
| O=C(c1cscn1)N1CCN(C2CN(C(=O)c3cc(-c4ccccc4)ccc3Cl)C2)CC1 [Cpd 1288] | 2.51 µM | 2.16 µM | – |
| Cc1c(C(=O)N2CC(N3CCN(C(=O)c4cscn4)CC3)C2)[nH]c2ccc(Cl)cc12 [Cpd 755] | 0.468 µM | 0.328 µM | – |
| O=C(c1ccc(-c2cccc(C(F)(F)F)c2)cc1)N1CC(N2CCN(C(=O)C3CC3(F)F)CC2)C1 (stereo not shown) [Cpd 1112] | 0.016 µM | – | Kd (mutant MGL; [3]): 0.046 µM |
| Cc1c(C(=O)N2CC(N3CCN(C(=O)c4nccs4)CC3)C2)c2ccccc2n1C [Cpd 796] | 1.53 µM | 0.099 µM | – |
| O=C(c1ccc2c(c1)[nH]c(=O)n2-c1ccc(F)cc1)N1CC(N2CCN(C(=O)c3cscn3)CC2)C1 [Cpd 940] | 2.24 µM | 0.259 µM | – |
| O=C(c1cccc(F)c1)N1CCN(C2CN(C(=O)c3ccc4c(ccn4-c4ccc(F)cc4)c3)C2)CC1 [Cpd 1424] | 0.075 µM | – | Kd (mutant MGL; [3]): 0.124 µM |
| O=C(c1ccccc1)N1CCc2cccc(C(=O)N3CC(N4CCN(C(=O)c5nccs5)CC4)C3)c2C1 [Cpd 1437] | > 16.7 µM | – | Kd (mutant MGL; [5]): 33.3 µM |
| O=C(c1ccc(-c2cccc(C(F)(F)F)c2)cc1)N1CC(N2CCN(C(=O)c3ccno3)CC2)C1 [Cpd 1118] | 0.016 µM | – | Kd (mutant MGL; [3]): 0.053 µM |
| O=C(Cn1ccc2cc(C(=O)N3CC(N4CCN(C(=O)c5nccs5)CC4)C3)ccc21)N1CCCC1 [Cpd 1035] | 4.62 µM | – | Kd (mutant MGL; [6]): 1.01 µM |
| O=C(c1nccs1)N1CCN(C2CN(C(=O)c3sc4cc(C(F)(F)F)ccc4c3Cl)C2)C(C(F)(F)F)C1 (stereo not shown) [Cpd 778, 1-(1-{[3-Chloro-6-(trifluoromethyl)-1-benzothiophen-2-yl]carbonyl}azetidin-3-yl)-4-(1,3-thiazol-2-ylcarbonyl)-2-(trifluoromethyl)piperazine] | 0.933 µM | – | Kd (mutant MGL; [3]): 1.2 µM |
| O=C(c1ccc2c(c1)[nH]c(=O)n2-c1ccccc1)N1CC(N2CCN(C(=O)c3cscn3)CC2)C1 [Cpd 939] | 2.36 µM | 0.302 µM | – |
| NC(=O)c1cc(-n2ccc3cc(C(=O)N4CC(N5CCN(C(=O)c6nccs6)CC5)C4)ccc32)ccc1F [Cpd 1418, 2-fluoro-5-[5-({3-[4-(1,3-thiazol-2-ylcarbonyl)piperazin-1-yl]azetidin-1-yl}carbonyl)-1H-indol-1-yl]benzamide] | 0.016 µM | 0.054 µM | – |

| Compound | IC50 [1] | Kd (mutant MGL; [4]) | other results |
| --- | --- | --- | --- |
| O=C(c1ccc(-c2cccc(C(F)(F)F)c2)cc1)N1CC(N2CCN(C(=O)c3ccc(Cl)o3)CC2)C1 [Cpd 1078] | 0.009 µM | – | Kd (mutant MGL; [3]): 0.005 µM |
| COc1ccc(C(C)(C)C)cc1C(=O)N1CC(N2CCN(C(=O)c3nccs3)CC2)C1 [Cpd 849] | 7.01 µM | 2.7 µM | – |
| O=C(c1ccc2[nH]c(-c3ccccc3)nc2c1)N1CC(N2CCN(C(=O)c3cscn3)CC2)C1 [Cpd 1299] | 3.86 µM | 1.1 µM | – |
| O=C(c1cscn1)N1CC(N2CCN(C(=O)c3cc4nc(C(F)(F)F)ccc4[nH]3)CC2)C1 [Cpd 830] | 3.94 µM | – | Kd (mutant MGL; [2]): 1.96 µM |
| Cc1c(C(=O)N2CC(N3CCN(C(=O)c4ccccc4)CC3)C2)oc2ccc(F)cc12 [Cpd 1490] | > 16.7 µM | – | Kd (mutant MGL; [5]): > 31.2 µM |
| Cc1cc(C(=O)N2CC(N3CCN(C(=O)c4nccs4)CC3)C2)cc2ccn(-c3ccc(F)cc3)c12 [Cpd 1355, 1-(4-Fluorophenyl)-7-methyl-5-({3-[4-(1,3-thiazol-2-ylcarbonyl)piperazin-1-yl]azetidin-1-yl}carbonyl)-1H-indole] | < 0.005 µM | – | Kd (mutant MGL; [6]): 0.002 µM |
| O=C(c1nccs1)N1CCN(C2CN(C(=O)c3cccc4[nH]c(Cc5ccccc5)nc34)C2)CC1 [Cpd 980] | 6.79 µM | – | Kd (mutant MGL; [5]): 5 µM |
| Cc1nc2cc(C(=O)N3CC(N4CCN(C(=O)c5nccs5)CC4)C3)ccc2n1C1CCCCC1 [Cpd 732] | 0.239 µM | 0.002 µM | – |
| Cc1ccnc(-n2ccc3cc(C(=O)N4CC(N5CCN(C(=O)c6cscn6)CC5)C4)ccc32)c1 [Cpd 1197, 1-(4-Methylpyridin-2-yl)-5-({3-[4-(1,3-thiazol-4-ylcarbonyl)piperazin-1-yl]azetidin-1-yl}carbonyl)-1H-indole] | 0.133 µM | – | Kd (mutant MGL; [2]): 0.065 µM |
| O=C(c1ccc(Oc2cccc(F)n2)cc1)N1CC(N2CCN(C(=O)c3nccs3)CC2)C1 [Cpd 715] | 0.135 µM | 0.167 µM | – |
| O=C(c1cscn1)N1CC(N2CCN(C(=O)c3ccc(-c4ccccc4)cc3)C(Cc3ccccc3)C2)C1 (stereo not shown) [Cpd 1284, 2-Benzyl-1-(biphenyl-4-ylcarbonyl)-4-[1-(1,3-thiazol-4-ylcarbonyl)azetidin-3-yl]piperazine] | 2.29 µM | 0.041 µM | – |
| COc1cc(-n2ccc3cc(C(=O)N4CC(N5CCN(C(=O)c6nccs6)CC5)C4)ccc32)ccc1C#N [Cpd 1115] | 0.016 µM | – | Kd (mutant MGL; [3]): 0.005 µM |
| Cn1nc(-c2ccc(F)cc2)c2cc(C(=O)N3CC(N4CCN(C(=O)c5nccs5)CC4)C3)ccc21 [Cpd 1195] | 0.12 µM | 0.023 µM | – |
| O=C(c1ccc(-n2cnc3ccccc32)cc1)N1CCN(C2CN(C(=O)c3ccccc3)C2)CC1 [Cpd 610] | 10.3 µM | 1.29 µM | – |
| O=C(c1ccc[nH]1)N1CCN(C2CN(C(=O)c3cc4ccc(C(F)(F)F)nc4[nH]3)C2)CC1 [Cpd 1447] | > 16.7 µM | – | Kd (mutant MGL; [3]): 3.33 µM |
| O=C(c1cnn(-c2ccccc2)n1)N1CC(N2CCN(C(=O)c3nccs3)CC2)C1 [Cpd 1300] | 4.13 µM | 3.33 µM | – |
| O=C(c1ccc[nH]1)N1CCN(C2CN(C(=O)c3cc4ccc(C(F)(F)F)nc4o3)C2)CC1 [Cpd 1446] | > 16.7 µM | – | Kd (mutant MGL; [5]): 62.5 µM |
| O=C(c1ccc2nc(-c3ccccc3)oc2c1)N1CCN(C2CN(C(=O)c3nccs3)C2)CC1 [Cpd 1233] | 0.343 µM | – | Kd (mutant MGL; [5]): 0.19 µM |
| COc1cc(-n2ccc3cc(C(=O)N4CC(N5CCN(C(=O)c6ccccc6)CC5)C4)ccc32)ccc1C#N [Cpd 633] | 0.062 µM | – | Kd (mutant MGL; [5]): 0.157 µM |
| O=C(c1ccccc1)N1CCN(C2CN(C(=O)c3cccc4[nH]c(-c5cccc(F)c5)nc34)C2)CC1 [Cpd 609] | 4.33 µM | – | Kd (mutant MGL; [5]): 1 µM |
| O=C(c1cc2ccc(C(F)(F)F)nc2o1)N1CCN(C2CN(C(=O)c3nccs3)C2)CC1 [Cpd 860] | 8.82 µM | 1.76 µM | – |
| O=C(c1ccc2c(c1)ncn2CC(F)(F)F)N1CC(N2CCN(C(=O)c3nccs3)CC2)C1 [Cpd 761] | 0.583 µM | – | Kd (mutant MGL; [6]): 0.092 µM |
